# Tests used:
# [1] = Water Solubility and Krafft Point (0.1% solution in water, 40° C.); settings: 40° C.
# Text: The temperature at which a surfactant forms micelles instead of precipitates is referred to as the Krafft point (Tk), and at or below this temperature the solubility of a surfactant becomes equal to its CMC (numerical value at which micelles are formed).
# [2] = Clarity Enhancement of prototype detergent compositions; format: physicochemical; settings: detergent formulation
# Protocol: The formulations were placed in a clear jar and stored for 1 month. The prototype detergent compositions are as follows:
# (§1) Detergent Compositions Comprising Sodium
# (§2) Lauryl Sulfate and Glycacarbamate Compounds
# N-Coconut D-Glucocarbamate
# 0.5-4.0% Foam Stabilizer/Thickener
# (§3) Lauryl Sulfate and Glycaurea Compounds
# (§4) The above formulations were prepared by admixing the above ingredients in listed order and heating the mixture to about 80° C. with rapid stirring. The mixture was then cooled to about 40° C., placed in a clear jar and stored at room temperature.
# For a clear detergent formulation to be successful it must have good shelf life and should not become turbid or produce sedimentation upon standing.
# [3] = Flow aids: water uptake and appearance of intimate admixtures; format: physicochemical; settings: intimate admixtures with ODS, SCMOS, CP-5 or CP-7
# Text: It is known in the are that certain ingredients are hygroscopic in nature and liquify after exposure to moisture after a few days. […] Samples were removed periodically, weighed and returned to R. H. chamber. Percent water uptake was based on the amound of builder present. % H2 O Uptake=grams of water absorbed/grams of builder×100 Identical mixtures of ODS, SCMOS, CP-5 or CP-7 and methyl α-D-glucose-6-O-monolaurate (c12 Mgluc), dodecyl β-D-glucopyranoside (C12 Gluc), dodecyl β-D-maltoside (C12 Malt), D-glucose or D-sorbitol were also prepared and are used for comparison. When the comparative sugar surfactant of monosacchardie are used, percent water uptake was based on the amount of saccharide present. % H2 O Uptake=grams of water absorbed/grams of saccharide×100
# [4] = Viscosity Modification of Sodium Lauryl Sulfate prototype detergent compositions; format: physicochemical; settings: for Appearance (viscosity) / Viscosity Increase: 15.0% sodium lauryl sulfate; for Viscosity Increase: 22° C.
# Protocol: The prototype detergent compositions are as follows:
# as §1, §2
# N-Dodecyl D-Glucocarbamate
# 2.0-7.0% Foam Stabilizer/Thickener
# 2.0% Viscosity Cobuilder
# as §3, §4
# It is well known that the viscosity of a liquid composition comprision of anionic surfactant can be modified by the addition of inorganic salts, such as sodium chloride. However, in the absence of an organic modifier, high levels of salt may be necessary to achieve the required viscosity which may lead to problems of storage at cold temperature or even salting our certain ingrediets. In practice, however, the viscosity of a liquid compositionis modified by the simultaneous addition of thickener and small amounts of inorganic salt (viscosity cobuilder). The combined effect is greater than either one alone. The viscosity of the above prototype detergent compositions comprising various amounts of glycacarbamate/urea compound are as follows: […]
# [5] = Viscosity Enhancement/Foam Stabilization (Brookfield Digital Viscometer)
# [6] = Surface Tension Reduction; format: physicochemical; settings: 40° C.
# Text: An important characteristic feature that surfactants have is the tendency for them to absorb at the water/air interface in an oriented manner, thereby altering the interfacial free energy of that surface. The surface free energy per unit area or surface tension (γ), is a measure of this work and may be considered as the minimum amount of work required to bring sufficient surfactant molecules to the surface.
# [7] = Critical Micelle Concentration (micelle formation); format: physicochemical; settings: 40° C.
# Text: The critical micelle concentration (CMC) is defined as the concentration at which a surfactant forms micelles in aqueous solution. […] A necessary and sufficient condition for CMC formation and surface tension reduction is the presence of both hydrophilic and hydrophobic functional groups. The hydrophilic portion provides strong interaction between the surfactant at the interface and with the surrounding water phase. The hydrophobic portion provides spontaneous adsorption of the surfactant at the interface and strong interaction with the adjacent air phase. If any of these functions are not performed, then CMC formation and surface tension reduction will not occur. For significant surface activity, a properly balanced hydrophilic and hydrophobic character is essential.
smiles,measurement,setting,value
CCCCCCCCCCCCN(C[C@H](O)[C@@H](O)[C@H](O)[C@H](O)CO)C(N)=O [N-Dodecyl D-Glucourea],H2O Solubility at 40° C.,[1],Yes
same,Krafft point (Tk),[1],Below Tk
same,H2O Solubility at 40° C.,[1]; listed as M,insoluble in water
same,clarity (in words),[2],clear without sedimentation
same,handling and flowing characteristics (in words),[3],improved the handling and flowing characteristics
same,Appearance (viscosity),[4]; 2.0% thickener,Slightly Viscous
same,Viscosity Increase,[4]; 2.0% thickener,Yes
same,Appearance (viscosity),[4]; 4.0% thickener,Viscous
same,Viscosity Increase,[4]; 4.0% thickener,Yes
same,Appearance (viscosity),[4]; 7.0% thickener,Very Viscous
same,Viscosity Increase,[4]; 7.0% thickener,Yes
same,viscosity increase (in words),[4]; compared with D-glucose,increases the viscosity of that composition more effectively than D-glucose
same,Foam Stability,[5]; 4.0% thickener,Yes
same,viscosity increase from normal viscosity,[5]; 4.0% thickener,99-104 times
same,Viscosity (Centipoise),"[5]; 4.0% thickener, 22° C.",2295 Centipoise
same,Foam Stability,"[5]; 4.0% thickener, listed as N-dodecyl D-glucourea",stabilize foam
same,viscosity enhancement and foam stabilization (comparison in words),"[5]; compared with lauramide DEA, cocoamide MEA, Neodol 91-6 and D-glucose","enhance viscosity and stabilze foam compartively to lauramide diethanolamine (DEA), but better than cocoamide menoethanolamine (MEA), Neodol 91-6 (C9 -C11 alcohol ethoxylate with 6 moles of ethylene oxide) and D-glucose"
same,Surface tension reduction (γ) at 40° C.,[6],Yes
same,Surface tension reduction (γ) at 40° C.,[6]; listed as M,do not significantly reduce the surface tension of water
same,CMC at 40° C. (micelle formation),[7],Yes
same,CMC at 40° C. (micelle formation),[7]; listed as M,do not form micelles

# From patent US5880076A, “Compositions comprising glycacarbamate and glycaurea compounds” (Lever Brothers Company, Division of Conopco, Inc., priority 1997, dated 1999)
